Consider 13 molecules from ChEMBL document CHEMBL1201862, “PubChem BioAssay data set” (2004).

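All cell lines were grown in 96-well plates and treated with compound for 48 hours. GI50: concentration for 50% inhibition of growth.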 Calls of active or inactive are those of the source. Rule as the data show it: active = GI50 up to about 1.1 µM and inactive = higher. A value given as a limit tells only on which side of the number the result lay.

Test systems include ACHN; CAKI-1; EKVX; HOP-92; HT-29; IGROV-1; K562; M14; NCI-H226; OVCAR-4; SF-539; SK-MEL-2; SK-OV-3; SNB-19; SW-620; TK-10; UACC-62; SR.
What all share (assay): inhibition of tumour cell growth, NCI panel, 48 h

As for `COc1cc([C@@H]2c3cc4c(cc3[C@@H](NCc3ccccc3F)C3COC(=O)[C@@H]32)OCO4)cc(OC)c1O` (stereo partly drawn), the GI50 in the assay on ACHN is 1.11 µM (active); with CAKI-1, 1.91 µM (inactive); in the assay on EKVX it was 10.7 µM (inactive); in the assay on HOP-92, 4.04 µM (inactive); in the assay on HT-29, 4.78 µM (inactive); in the assay with IGROV-1, 1.11 µM (active). Further, the GI50 with K562 is 1.47 µM (inactive); with M14, 3.01 µM (inactive); in the assay with NCI-H226, 2.06 µM (inactive); with OVCAR-4, 16.6 µM (inactive); in the assay on SF-539 it was 1.47 µM (inactive); with SK-MEL-2, 23.4 µM (inactive). Moreover, the GI50 in the assay with SK-OV-3 is 2.58 µM (inactive); in the assay with SNB-19, 5.36 µM (inactive); with SW-620 it was 0.851 µM (active); in the assay with TK-10, 27.6 µM (inactive); with UACC-62, 0.463 µM (active).
For `CCOC(=O)c1ccc(/N=N/c2cc(C(=O)OCC)ccc2O)cc1`, the GI50 in the assay with ACHN is 84.3 µM (inactive); in the assay with CAKI-1, 46.6 µM (inactive); in the assay on EKVX it was 20.1 µM (inactive); in the assay with HOP-92, > 100 µM (inactive); with HT-29 it was 43.6 µM (inactive); in the assay with IGROV-1 it was > 100 µM (inactive). For the same molecule, the GI50 in the assay on K562, with M14, in the assay with SF-539, in the assay on SK-OV-3, with SW-620 and in the assay with TK-10 was > 100 µM (inactive) each time. The GI50 with UACC-62 was > 100 µM (inactive).
Turning to `O=C1C[C@@H]2[C@@H](c3ccccc3)[C@@H]3C(=O)c4ccccc4NC(=O)[C@H]3[C@]2(O)c2ccccc2N1`, the GI50 in the assay with ACHN, in the assay with EKVX, in the assay on HT-29, with IGROV-1, in the assay on K562 and in the assay on M14 was > 100 µM (inactive) throughout. For the same molecule, the GI50 in the assay with NCI-H226, in the assay with OVCAR-4, in the assay with SK-MEL-2, in the assay on SNB-19, in the assay on SR and in the assay with SW-620 was > 100 µM (inactive) each time. Besides, the GI50 in the assay on TK-10 and in the assay on UACC-62 was > 100 µM (inactive) in each case.
For `O=c1c2cc(Br)cc(Br)c2nc(CCCl)n1CCO`, the GI50 was 60.7 µM (inactive) in the assay with ACHN; 91 µM (inactive) in the assay with CAKI-1; 73.8 µM (inactive) with EKVX; 28.8 µM (inactive) with HOP-92; > 100 µM (inactive) with HT-29; 75.9 µM (inactive) in the assay on IGROV-1. Besides, the GI50 is 52.5 µM (inactive) with K562; 97.7 µM (inactive) in the assay with M14; 39 µM (inactive) with NCI-H226; 52.8 µM (inactive) in the assay with OVCAR-4; 81.3 µM (inactive) with SF-539; > 100 µM (inactive) with SK-MEL-2. In addition, the GI50 with SK-OV-3 was 58.7 µM (inactive); with SW-620, > 100 µM (inactive); in the assay with TK-10, > 100 µM (inactive); with UACC-62, 60.8 µM (inactive).
`CS(=O)(=O)N(CCC#N)c1ccc(/C=N/NC(=O)CC(=O)Nc2cccc(Cl)c2)cc1`: the GI50 in the assay with ACHN, with CAKI-1, in the assay on EKVX, with HT-29, with IGROV-1 and in the assay on K562 was > 100 µM (inactive) throughout. Besides, the GI50 with M14, in the assay with NCI-H226, with OVCAR-4, in the assay on SF-539, with SK-MEL-2 and in the assay with SK-OV-3 was > 100 µM (inactive) throughout. Also, the GI50 with SNB-19, in the assay on SW-620, with TK-10 and in the assay on UACC-62 was > 100 µM (inactive) each time.
As to `CC1=C(C(=O)CC(=O)C(=O)Nc2ccccc2C(F)(F)F)Sc2ccccc2N1`, the GI50 in the assay with ACHN was 73.3 µM (inactive); in the assay with CAKI-1 it was 53.2 µM (inactive); in the assay with EKVX it was 64.7 µM (inactive); in the assay with HOP-92, 20.8 µM (inactive); with HT-29 it was > 100 µM (inactive); in the assay on IGROV-1, 44 µM (inactive). Moreover, the GI50 in the assay on K562 is 49.1 µM (inactive); with M14 it was 52.4 µM (inactive); in the assay on NCI-H226, 15.6 µM (inactive); in the assay on OVCAR-4, 29.3 µM (inactive); in the assay with SF-539 it was 31.2 µM (inactive); with SK-MEL-2, > 100 µM (inactive). Moreover, the GI50 was > 100 µM (inactive) in the assay with SK-OV-3; 35.1 µM (inactive) in the assay with SNB-19; 33.7 µM (inactive) in the assay on SW-620; > 100 µM (inactive) in the assay on TK-10; 38.5 µM (inactive) in the assay with UACC-62.
With `CCOC(OC(C)=O)[C@@H]1C=C[C@H](C)N(c2ccc([N+](=O)[O-])cc2)O1` (stereo partly drawn), the GI50 with ACHN is 5.13 µM (inactive); in the assay on CAKI-1, 7.8 µM (inactive); in the assay on EKVX, 16.1 µM (inactive); with HOP-92, 6.25 µM (inactive); with HT-29, 3.17 µM (inactive); in the assay on IGROV-1, 7.98 µM (inactive). In addition, the GI50 in the assay with K562 was 2.73 µM (inactive); in the assay on M14, 3.06 µM (inactive); in the assay on NCI-H226 it was 5.57 µM (inactive); in the assay with OVCAR-4 it was 6.49 µM (inactive); in the assay on SF-539, 2.54 µM (inactive); with SK-MEL-2 it was 4.26 µM (inactive). The GI50 is 17.8 µM (inactive) in the assay on SK-OV-3; 14.7 µM (inactive) in the assay with SNB-19; 2.46 µM (inactive) with SW-620; 5.7 µM (inactive) with TK-10; 2.54 µM (inactive) with UACC-62.
Take `CC(=O)OC1c2ccccc2CCCCCCC12OCCO2` (stereo not drawn): the GI50 in the assay with ACHN was > 100 µM (inactive); with CAKI-1, 51.9 µM (inactive); in the assay with HT-29, > 100 µM (inactive); in the assay on IGROV-1, > 100 µM (inactive); in the assay with K562 it was 55.2 µM (inactive); in the assay with M14, 86.5 µM (inactive). Besides, the GI50 with NCI-H226, in the assay on OVCAR-4, with SF-539, in the assay on SK-MEL-2, with SK-OV-3 and in the assay on SNB-19 was > 100 µM (inactive) throughout. For the same molecule, the GI50 in the assay with SW-620, in the assay with TK-10 and with UACC-62 was > 100 µM (inactive) throughout.
Consider `c1cc2nnsc2s1`, for which the GI50 in the assay on ACHN, in the assay with CAKI-1, with EKVX, in the assay on HOP-92, with HT-29 and with IGROV-1 was > 100 µM (inactive) in each case. Besides, the GI50 in the assay with K562, in the assay on M14, with NCI-H226, in the assay with OVCAR-4, with SF-539 and in the assay with SK-MEL-2 was > 100 µM (inactive) each time. Besides, the GI50 with SK-OV-3 is > 100 µM (inactive); in the assay with SNB-19 it was > 100 µM (inactive); in the assay on SW-620, 39.2 µM (inactive); with TK-10, > 100 µM (inactive); with UACC-62, > 100 µM (inactive).
As for `CC(=O)OCCOCNC(=S)N/N=C/c1ccc(Br)s1`, the GI50 in the assay with ACHN was > 100 µM (inactive); in the assay with EKVX it was > 36.2 µM (inactive); in the assay with HOP-92 it was > 100 µM (inactive); in the assay on HT-29, > 100 µM (inactive); in the assay with IGROV-1, > 100 µM (inactive); with K562, > 20.8 µM (inactive). Besides, the GI50 in the assay with M14 was > 100 µM (inactive); in the assay on NCI-H226 it was > 100 µM (inactive); in the assay with OVCAR-4, > 93.3 µM (inactive); in the assay with SF-539 it was > 100 µM (inactive); in the assay on SK-MEL-2 it was > 100 µM (inactive); with SK-OV-3, > 100 µM (inactive). The GI50 with SNB-19, in the assay on SW-620, in the assay on TK-10 and in the assay on UACC-62 was > 100 µM (inactive) throughout.
Take `Nc1ccccc1C(=O)/C=C/c1ccccc1O`: the GI50 is 25.6 µM (inactive) in the assay with CAKI-1; > 100 µM (inactive) in the assay on EKVX; 20.6 µM (inactive) with HOP-92; > 100 µM (inactive) with HT-29; > 100 µM (inactive) with IGROV-1; 29.8 µM (inactive) in the assay with K562. Also, the GI50 with M14 is 32.3 µM (inactive); with NCI-H226, > 100 µM (inactive); in the assay on OVCAR-4 it was 48.6 µM (inactive); in the assay on SF-539, 78.7 µM (inactive); in the assay on SK-MEL-2, 28.3 µM (inactive); in the assay with SK-OV-3, > 100 µM (inactive). Moreover, the GI50 is 81.1 µM (inactive) in the assay on SNB-19, 35.4 µM (inactive) in the assay on SW-620, 93.5 µM (inactive) with TK-10 and 57.1 µM (inactive) with UACC-62.
Consider `CCOC(=O)C(NC(=O)CC)(Nc1cc(C)on1)C(F)(F)F` (stereo not drawn), for which the GI50 in the assay on ACHN, in the assay with EKVX, in the assay on HT-29, in the assay with IGROV-1, in the assay on K562 and in the assay on M14 was > 100 µM (inactive) in each case. In addition, the GI50 in the assay on SF-539, with SK-MEL-2, in the assay with SNB-19, with SR, in the assay with SW-620 and in the assay with TK-10 was > 100 µM (inactive) each time.
As to `NCCN1C(=O)C2C3c4ccccc4C(c4ccccc43)C2C1=O` (stereo not drawn), the GI50 in the assay on ACHN is > 100 µM (inactive); in the assay on CAKI-1, > 100 µM (inactive); in the assay on EKVX, > 100 µM (inactive); with HOP-92, 28.2 µM (inactive); in the assay with HT-29, > 100 µM (inactive); in the assay with IGROV-1 it was > 100 µM (inactive). For the same molecule, the GI50 in the assay with K562, in the assay on M14, in the assay with NCI-H226, in the assay with OVCAR-4, in the assay with SF-539 and in the assay with SK-MEL-2 was > 100 µM (inactive) each time. The GI50 in the assay on SK-OV-3, with SNB-19, in the assay with SW-620, with TK-10 and with UACC-62 was > 100 µM (inactive) throughout.
